Key:
[1] = test system: mFAP transfected HEK293 cells; assay: CellTiter-Blue cell viability assay; assay type: cell-based; conditions: 48 h
cells = cells in vitro and in vivo; cited from earlier work
several tumor cell lines = conditions: cited from earlier work
tumor growth = conditions: mice inoculated with those same cells; cited from earlier work
FAP = biological target: T1, FAP (Homo sapiens, UniProt Q12884); assay: Enzyme kinetics; assay type: biochemical; conditions: highest concentrations tested
T1 sequence (Q12884 1-760): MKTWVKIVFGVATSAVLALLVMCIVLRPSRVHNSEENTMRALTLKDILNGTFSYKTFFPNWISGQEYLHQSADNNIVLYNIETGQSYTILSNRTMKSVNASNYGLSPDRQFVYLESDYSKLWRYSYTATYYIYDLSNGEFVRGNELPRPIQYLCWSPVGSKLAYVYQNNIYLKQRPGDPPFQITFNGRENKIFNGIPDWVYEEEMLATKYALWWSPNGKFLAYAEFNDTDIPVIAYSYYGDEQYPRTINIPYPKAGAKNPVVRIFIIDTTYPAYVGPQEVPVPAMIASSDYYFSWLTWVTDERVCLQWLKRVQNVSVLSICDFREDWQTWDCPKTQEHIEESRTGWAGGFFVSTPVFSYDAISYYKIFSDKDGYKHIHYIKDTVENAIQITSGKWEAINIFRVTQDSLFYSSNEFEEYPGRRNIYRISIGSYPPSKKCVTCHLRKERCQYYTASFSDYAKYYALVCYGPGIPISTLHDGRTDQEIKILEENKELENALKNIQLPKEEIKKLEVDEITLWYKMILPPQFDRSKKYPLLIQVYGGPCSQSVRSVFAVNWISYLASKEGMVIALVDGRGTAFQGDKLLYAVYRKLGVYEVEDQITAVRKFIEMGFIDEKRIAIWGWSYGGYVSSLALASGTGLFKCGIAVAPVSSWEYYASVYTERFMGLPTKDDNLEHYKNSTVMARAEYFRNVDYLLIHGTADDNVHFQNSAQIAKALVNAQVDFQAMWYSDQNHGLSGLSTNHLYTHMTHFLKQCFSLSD

## C[C@@H](NC(=O)c1ccncc1)C(=O)N1CCC[C@H]1B(O)O [Compound 6, N-(Pyridine-4-carbonyl)-(R)-alaninyl-(R)-boroproline]
[1]
  cytotoxicity: No cytotoxicity was observed

## CC(C)C[C@H](NC(=O)[C@H](Cc1ccccc1)NC(=O)c1cnccn1)B(O)O [bortezomib, Bortezomib]
cells
  cytotoxicity: cytotoxic

## CC(C)[C@H](N)C(=O)N1CCC[C@H]1B(O)O [Compound 20, (S)-Valinyl-(R)-boroproline]
Several tumor cell lines
  cytotoxicity: lack cytotoxicity against several tumor cell lines
Tumor growth
  tumor growth in vivo: attenuating tumor growth in vivo

## CC(C)[C@H](NC(=O)c1cccnc1)C(=O)N1CCC[C@H]1B(O)O [Compound 22, N-(Pyridine-3-carbonyl)-(R)-valinyl-(R)-boroproline]
FAP
  inhibition of FAP in kinetic analysis: does not inhibit FAP at the highest concentrations tested
